Reference: patent publication US9187467B2, “2-phenyl benzothiazole linked imidazole compounds as potential anticancer agents and process for the preparation thereof” (Council of Scientific and Industrial Research, priority 2012, dated 2015)

Tests used:
HL-60 (TB) = assay: SRB anticancer assay, leukemia; format: cell-based, human; parameters: Log10GI50: unit not given here
NCI-H226 = assay: SRB anticancer assay, non-small lung; format: cell-based, human; conditions: Homo sapiens, NCI-H226, 48 h
NCI-H522 = assay: SRB anticancer assay, non-small lung; format: cell-based, human; parameters: Log10GI50: unit not given here
SF-539 = assay: SRB anticancer assay, CNS; format: cell-based, human; parameters: Log10GI50: unit not given here
U251 = assay: SRB anticancer assay, CNS; format: cell-based, human; parameters: Log10GI50: unit not given here
IGROV1 = assay: SRB anticancer assay, ovarian; format: cell-based, human; conditions: Homo sapiens, IGROV-1; IGROV1, 48 h
ACHN = assay: SRB anticancer assay, renal; format: cell-based, human; parameters: Log10GI50: unit not given here
TK-10 = assay: SRB anticancer assay, renal; format: cell-based, human; conditions: Homo sapiens, TK-10, 48 h
UO-31 = assay: SRB anticancer assay, renal; format: cell-based, human; parameters: Log10GI50: unit not given here
PC-3 = assay: SRB anticancer assay, prostate; format: cell-based, human; parameters: Log10GI50: unit not given here
BT-549 = assay: SRB anticancer assay, breast; format: cell-based, human; parameters: Log10GI50: unit not given here
T-47D = assay: SRB anticancer assay, breast; format: cell-based; conditions: Homo sapiens, T47D, 48 h
LOX IMVI = assay: SRB anticancer assay, melanoma; format: cell-based, human; parameters: Log10GI50: unit not given here
UACC-62 = assay: SRB anticancer assay, melanoma; format: cell-based, human
CNS cancer cell lines = assay: SRB anticancer assay, panel result; format: cell-based, human
In short: (§1)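 Each compound is profiled per cell line over five or more concentrations at tenfold spacing. Exposure lasts 48 h without washout, and the sulforhodamine B method quantifies cellular protein as a growth measure.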

Colon cancer cell lines = assay: SRB anticancer assay, panel result; format: cell-based, human
In short: as §1

[1] = system: Leukemia cancer cell lines; assay: SRB anticancer assay, panel result; format: cell-based, human
In short: as §1

[2] = system: Melanoma cancer cell lines; assay: SRB anticancer assay, panel result; format: cell-based, human
In short: as §1

[3] = system: Non-small cell lung cancer cell lines; assay: SRB anticancer assay, panel result; format: cell-based, human
In short: as §1

[4] = system: Ovarian cancer cell lines; assay: SRB anticancer assay, panel result; format: cell-based, human
In short: as §1

[5] = system: Prostate cancer cell lines; assay: SRB anticancer assay, panel result; format: cell-based, human
In short: as §1

Renal cancer cell lines = assay: SRB anticancer assay, panel result; format: cell-based, human
In short: as §1

K562 (Leukemia) cells = assay: Cell cycle distribution by flow cytometry; format: cell-based
In short: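 Compound-treated K562 cells analysed for cell-cycle distribution by flow cytometry; values given as % of cells.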

[6] = system: MCF-7 (Breast carcinoma) cells; assay: Cell cycle distribution by flow cytometry (FACS); format: cell-based; conditions: MCF-7 cells, 2 μM, 24h
In short: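 MCF-7 cells treated with compound at 2 μM for 24h, DMSO (0.25%) as control. Cell cycle distribution read by flow cytometry.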

COc1ccc(-c2cncn2-c2ccc(-c3nc4cc(OC)c(OC)c(OC)c4s3)cc2)cc1N [Compound 7j, 2-Methoxy-5-(1-(4-(5,6,7-trimethoxybenzo[d]thiazol-2-yl)phenyl)-1H-imidazol-5-yl)benzeneamine]
Log10GI50 (HL-60 (TB); HL-60(TB), present compounds): −5.66 | GI50 (HL-60 (TB); Homo sapiens, HL-60, 48 h): 2.2 µM | GI50 (NCI-H226): 6.7 µM | GI50 (NCI-H522; Homo sapiens, NCI-H522, 48 h): 3.37 µM | Log10GI50 (NCI-H522; NCI-H522, present compounds): −5.47 | GI50 (SF-539; Homo sapiens, SF-539, 48 h): > 100 µM | Log10GI50 (SF-539; SF-539, present compounds): >−4.0 | GI50 (U251; Homo sapiens, U-251, U251, 48 h): 6 µM | Log10GI50 (U251; U251, present compounds): −5.22 | GI50 (IGROV1): 4.9 µM | GI50 (ACHN; Homo sapiens, 48 h): 5.59 µM | Log10GI50 (ACHN; present compounds): −5.25 | GI50 (TK-10): 4.16 µM | GI50 (UO-31; Homo sapiens, UO-31, 48 h): 1.99 µM | Log10GI50 (UO-31; UO-31, present compounds): −5.70 | GI50 (PC-3; Homo sapiens, PC-3, 48 h): 2.59 µM | Log10GI50 (PC-3; PC-3, present compounds): −5.59 | Log10GI50 (BT-549; BT-549, present compounds): −5.21 | GI50 (BT-549; Homo sapiens, BT-549, 48 h): 3.02 µM | GI50 (T-47D): 8.6 µM | GI50 (LOX IMVI; Homo sapiens, 48 h): 4.75 µM | Log10GI50 (LOX IMVI; present compounds): −5.32 | GI50 (UACC-62; Homo sapiens, UACC-62, 48 h): > 100 µM | Log10GI50 (UACC-62; UACC-62, present compounds): −5.04 log10 M | mean graph midpoint value (MG_MID) of Log10 GI50 (CNS cancer cell lines; CNS panel): −4.53 mol/L | mean graph midpoint value (MG_MID) of log10 TGI (CNS cancer cell lines; CNS panel, total inhibition of net cell growth): >−4.0 | CC50 (CNS cancer cell lines; Homo sapiens, CNS panel, 50% net cell death, read-out: mean graph midpoint value (MG_MID) of Log10 LC50 (converted)): > 100 µM | GI50 (CNS cancer cell lines; Homo sapiens, six CNS cancer cell lines, exposure at least 48 h, read-out: GI50, range over the panel): 4.44 to 52.3 µM | mean graph midpoint value (MG_MID) of Log10 GI50 (Colon cancer cell lines; Colon panel): −5.40 log10(mol/L) | mean graph midpoint value (MG_MID) of log10 TGI (Colon cancer cell lines; Colon panel, total inhibition of net cell growth): −4.11 | LC50 (Colon cancer cell lines; Homo sapiens, Colon panel, 50% net cell death, read-out: mean graph midpoint value (MG_MID) of Log10 LC50 (converted)): > 100 µM | GI50 (Colon cancer cell lines; Homo sapiens, seven colon cancer cell lines, exposure at least 48 h, read-out: GI50, range over the panel): 2.94 to 6.21 µM | LC50 ([1]; Homo sapiens, Leukemia panel, 50% net cell death, read-out: mean graph midpoint value (MG_MID) of Log10 LC50 (converted)): > 100 µM | GI50 ([1]; Homo sapiens, six leukemia cancer cell lines, exposure at least 48 h, read-out: GI50, range over the panel): 2.2 to 4 µM | mean graph midpoint value (MG_MID) of Log10 GI50 ([1]; Leukemia panel): −5.49 log10(mol/L) | mean graph midpoint value (MG_MID) of log10 TGI ([1]; Leukemia panel, total inhibition of net cell growth): −4.20 | LC50 ([2]; Homo sapiens, Melanoma panel, 50% net cell death, read-out: mean graph midpoint value (MG_MID) of Log10 LC50 (converted)): 81.3 µM | GI50 ([2]; Homo sapiens, nine melanoma cancer cell lines, exposure at least 48 h, read-out: GI50, range over the panel): 1.73 to 13.7 µM | mean graph midpoint value (MG_MID) of Log10 GI50 ([2]; Melanoma panel): −5.17 log10(mol/L) | mean graph midpoint value (MG_MID) of log10 TGI ([2]; Melanoma panel, total inhibition of net cell growth): −4.26 | LC50 ([3]; Homo sapiens, Non-small cell lung panel, 50% net cell death, read-out: mean graph midpoint value (MG_MID) of Log10 LC50 (converted)): > 100 µM | GI50 ([3]; Homo sapiens, nine Non-small cell lung cancer cell lines, exposure at least 48 h, read-out: GI50, range over the panel): 3.37 to 25.7 µM | mean graph midpoint value (MG_MID) of Log10 GI50 ([3]; Non-small cell lung panel): −5.18 log10(M) | mean graph midpoint value (MG_MID) of log10 TGI ([3]; Non-small cell lung panel, total inhibition of net cell growth): −4.11 | LC50 ([4]; Homo sapiens, Ovarian panel, 50% net cell death, read-out: mean graph midpoint value (MG_MID) of Log10 LC50 (converted)): > 100 µM | GI50 ([4]; Homo sapiens, seven ovarian cancer cell lines, exposure at least 48 h, read-out: GI50, range over the panel): 3.12 to 6.29 µM | mean graph midpoint value (MG_MID) of Log10 GI50 ([4]; Ovarian panel): −4.93 mol/L | mean graph midpoint value (MG_MID) of log10 TGI ([4]; Ovarian panel, total inhibition of net cell growth): >−4.0 | LC50 ([5]; Homo sapiens, Prostate panel, 50% net cell death, read-out: mean graph midpoint value (MG_MID) of Log10 LC50 (converted)): > 100 µM | GI50 ([5]; Homo sapiens, two prostate cancer cell lines (PC-3, DU-145), exposure at least 48 h, read-out: GI50, range over the panel): 2.59 to 6.38 µM | mean graph midpoint value (MG_MID) of Log10 GI50 ([5]; Prostate panel): −5.39 mol/L | mean graph midpoint value (MG_MID) of log10 TGI ([5]; Prostate panel, total inhibition of net cell growth): >−4.0 | CC50 (Renal cancer cell lines; Homo sapiens, Renal panel, 50% net cell death, read-out: mean graph midpoint value (MG_MID) of Log10 LC50 (converted)): > 100 µM | GI50 (Renal cancer cell lines; Homo sapiens, eight renal cancer cell lines, exposure at least 48 h, read-out: GI50, range over the panel): 1.99 to 9.44 µM | mean graph midpoint value (MG_MID) of Log10 GI50 (Renal cancer cell lines; Renal panel): −5.31 log10(mol/L) | mean graph midpoint value (MG_MID) of log10 TGI (Renal cancer cell lines; Renal panel, total inhibition of net cell growth): −4.14 | cells in G2/M phase (K562 (Leukemia) cells): 12% | cells in G2/M phase [6]: 23%
